In the supplement of paper PMC10307832:

Experiments:
Test in all cases: relative viability (nuclei count vs DMSO), 5 days (fraction); higher = more cells survive
[1] = compound: CC1=NC=CC(=C1)C2=CC=C(C=C2)CC(=O)NC3=CC=C(C=C3)C4=CN=CC=C4 [Wnt-C59] + CC(=O)c1c(C)c2cnc(Nc3ccc(N4CCNCC4)cn3)nc2n(C2CCCC2)c1=O [Palbociclib] (partner 0.5 µM)
Procedure, shortened: (§1)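 Lung cancer cell lines, seeded in 1536-well plates, were treated the following day by pin tool with a single drug or with five library-drug doses (not always all listed) in √10 steps on top of a fixed anchor-drug dose. Cells were fixed and nuclei stained in one step after 5 days, and nuclei were counted. Relative viability is the nuclei count for treated wells divided by that for vehicle wells, reported as medians of duplicate plates.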

[2] = compound: CS(=O)(=O)CCNCc1ccc(-c2ccc3ncnc(Nc4ccc(OCc5cccc(F)c5)c(Cl)c4)c3c2)o1 [Lapatinib] + CC1(C)CCC(c2ccc(Cl)cc2)=C(CN2CCN(c3ccc(C(=O)NS(=O)(=O)c4ccc(N[C@H](CCN5CCOCC5)CSc5ccccc5)c(S(=O)(=O)C(F)(F)F)c4)cc3)CC2)C1 [Navitoclax] (partner 0.5 µM)
Procedure, shortened: as §1

[3] = compound: CS(=O)(=O)CCNCc1ccc(-c2ccc3ncnc(Nc4ccc(OCc5cccc(F)c5)c(Cl)c4)c3c2)o1 [Lapatinib] + Nc1ncn([C@H]2C[C@H](O)[C@@H](CO)O2)c(=O)n1 [Decitabine] (partner 2 µM)
Procedure, shortened: as §1

[4] = compound: CS(=O)(=O)CCNCc1ccc(-c2ccc3ncnc(Nc4ccc(OCc5cccc(F)c5)c(Cl)c4)c3c2)o1 [Lapatinib] + CCNC(=O)c1noc(-c2cc(C(C)C)c(O)cc2O)c1-c1ccc(CN2CCOCC2)cc1 [Luminespib] (partner 0.01 µM)
Procedure, shortened: as §1

Cell Line 201T has a relative viability ([1]; first compound 0.001 µM) of 0.347, a relative viability ([1]; first compound 0.01 µM) of 0.352 and a relative viability ([1]; first compound 0.03162 µM) of 0.359. For the same cell line, the relative viability ([1]; first compound 0.1 µM) was 0.358, the relative viability ([2]; first compound 0.02 µM) was 1.16 and the relative viability ([2]; first compound 0.06325 µM) was 1.22. For the same cell line, the relative viability ([2]; first compound 0.2 µM) was 1.16, the relative viability ([2]; first compound 0.6325 µM) was 1.22 and the relative viability ([2]; first compound 2 µM) was 1.2. The relative viability ([3]; first compound 0.02 µM) was 0.845, the relative viability ([3]; first compound 0.06325 µM) was 0.812 and the relative viability ([3]; first compound 0.2 µM) was 0.813. The relative viability ([3]; first compound 0.6325 µM) was 0.827, the relative viability ([3]; first compound 2 µM) was 0.817 and the relative viability ([4]; first compound 0.02 µM) was 1.02. It also gave a relative viability ([4]; first compound 0.06325 µM) of 0.976, a relative viability ([4]; first compound 0.2 µM) of 1.03 and a relative viability ([4]; first compound 0.6325 µM) of 1.03. For the same cell line, the relative viability ([4]; first compound 2 µM) was 1.04.

For A549, the relative viability ([2]; first compound 0.02 µM) was 1.12, the relative viability ([2]; first compound 0.06325 µM) was 1.13 and the relative viability ([2]; first compound 0.2 µM) was 1.22. The relative viability ([2]; first compound 0.6325 µM) was 1.21, the relative viability ([2]; first compound 2 µM) was 1.21 and the relative viability ([3]; first compound 0.06325 µM) was 0.224. For the same cell line, the relative viability ([3]; first compound 0.2 µM) was 0.305, the relative viability ([3]; first compound 0.6325 µM) was 0.291 and the relative viability ([3]; first compound 2 µM) was 0.133.

A-427 showed a relative viability ([1]; first compound 0.001 µM) of 0.55, a relative viability ([1]; first compound 0.01 µM) of 0.513 and a relative viability ([1]; first compound 0.03162 µM) of 0.509. The relative viability ([1]; first compound 0.1 µM) was 0.562, the relative viability ([2]; first compound 0.06325 µM) was 0.977 and the relative viability ([2]; first compound 0.2 µM) was 0.885. The relative viability ([2]; first compound 0.6325 µM) was 0.933, the relative viability ([2]; first compound 2 µM) was 0.957 and the relative viability ([3]; first compound 0.02 µM) was 0.561. It also gave a relative viability ([3]; first compound 0.06325 µM) of 0.519, a relative viability ([3]; first compound 0.2 µM) of 0.597 and a relative viability ([3]; first compound 0.6325 µM) of 0.614. The relative viability ([3]; first compound 2 µM) was 0.498, the relative viability ([4]; first compound 0.06325 µM) was 0.751 and the relative viability ([4]; first compound 0.2 µM) was 0.96. It also gave a relative viability ([4]; first compound 0.6325 µM) of 0.959 and a relative viability ([4]; first compound 2 µM) of 1.1.

ABC-1 showed a relative viability ([1]; first compound 0.001 µM) of 0.621, a relative viability ([1]; first compound 0.01 µM) of 0.693 and a relative viability ([1]; first compound 0.03162 µM) of 1.03. It also gave a relative viability ([1]; first compound 0.1 µM) of 0.923, a relative viability ([3]; first compound 0.02 µM) of 1.1 and a relative viability ([3]; first compound 0.06325 µM) of 0.931. It also gave a relative viability ([3]; first compound 0.6325 µM) of 1.01, a relative viability ([3]; first compound 2 µM) of 1.02 and a relative viability ([4]; first compound 0.2 µM) of 0.509. The relative viability ([4]; first compound 2 µM) was 0.64.

Work on BEN yielded a relative viability ([1]; first compound 0.001 µM) of 0.477, a relative viability ([1]; first compound 0.01 µM) of 0.437 and a relative viability ([1]; first compound 0.03162 µM) of 0.538. The relative viability ([1]; first compound 0.1 µM) was 0.534, the relative viability ([2]; first compound 0.02 µM) was 0.0643 and the relative viability ([2]; first compound 0.06325 µM) was 0.0706. For the same cell line, the relative viability ([2]; first compound 0.2 µM) was 0.061, the relative viability ([2]; first compound 0.6325 µM) was 0.0751 and the relative viability ([2]; first compound 2 µM) was 0.0557. It also gave a relative viability ([3]; first compound 0.02 µM) of 0.413, a relative viability ([3]; first compound 0.06325 µM) of 0.743 and a relative viability ([3]; first compound 0.2 µM) of 0.725. The relative viability ([3]; first compound 0.6325 µM) was 0.748, the relative viability ([3]; first compound 2 µM) was 0.665 and the relative viability ([4]; first compound 0.06325 µM) was 0.564. The relative viability ([4]; first compound 0.2 µM) was 0.229, the relative viability ([4]; first compound 0.6325 µM) was 0.402 and the relative viability ([4]; first compound 2 µM) was 0.417.

CAL-12T showed a relative viability ([1]; first compound 0.001 µM) of 0.483, a relative viability ([1]; first compound 0.01 µM) of 0.375 and a relative viability ([1]; first compound 0.03162 µM) of 0.556. It also gave a relative viability ([1]; first compound 0.1 µM) of 0.394, a relative viability ([2]; first compound 0.02 µM) of 1.18 and a relative viability ([2]; first compound 0.06325 µM) of 1.23. For the same cell line, the relative viability ([2]; first compound 0.2 µM) was 1.32, the relative viability ([2]; first compound 0.6325 µM) was 1.03 and the relative viability ([2]; first compound 2 µM) was 0.724. For the same cell line, the relative viability ([4]; first compound 0.06325 µM) was 0.236, the relative viability ([4]; first compound 0.2 µM) was 0.477 and the relative viability ([4]; first compound 0.6325 µM) was 0.235. It also gave a relative viability ([4]; first compound 2 µM) of 0.35.

For COR-L23, the relative viability ([1]; first compound 0.001 µM) was 0.347, the relative viability ([1]; first compound 0.01 µM) was 0.279 and the relative viability ([1]; first compound 0.03162 µM) was 0.321. The relative viability ([1]; first compound 0.1 µM) was 0.264, the relative viability ([2]; first compound 0.02 µM) was 0.943 and the relative viability ([2]; first compound 0.06325 µM) was 0.938. The relative viability ([2]; first compound 0.2 µM) was 1.09, the relative viability ([2]; first compound 0.6325 µM) was 0.887 and the relative viability ([2]; first compound 2 µM) was 0.854. The relative viability ([3]; first compound 0.02 µM) was 0.516, the relative viability ([3]; first compound 0.06325 µM) was 0.421 and the relative viability ([3]; first compound 0.2 µM) was 0.456. The relative viability ([3]; first compound 0.6325 µM) was 0.417, the relative viability ([3]; first compound 2 µM) was 0.422 and the relative viability ([4]; first compound 0.02 µM) was 0.715. For the same cell line, the relative viability ([4]; first compound 0.06325 µM) was 0.688, the relative viability ([4]; first compound 0.2 µM) was 0.731 and the relative viability ([4]; first compound 0.6325 µM) was 0.646. It also gave a relative viability ([4]; first compound 2 µM) of 0.567.

Work on COR-L 105 yielded a relative viability ([1]; first compound 0.001 µM) of 0.362, a relative viability ([1]; first compound 0.01 µM) of 0.373 and a relative viability ([1]; first compound 0.03162 µM) of 0.379. It also gave a relative viability ([1]; first compound 0.1 µM) of 0.438, a relative viability ([2]; first compound 0.02 µM) of 0.701 and a relative viability ([2]; first compound 0.06325 µM) of 0.744. It also gave a relative viability ([2]; first compound 0.2 µM) of 0.77, a relative viability ([2]; first compound 0.6325 µM) of 0.574 and a relative viability ([2]; first compound 2 µM) of 0.302. It also gave a relative viability ([3]; first compound 0.02 µM) of 0.62, a relative viability ([3]; first compound 0.06325 µM) of 0.538 and a relative viability ([3]; first compound 0.2 µM) of 0.586. The relative viability ([3]; first compound 0.6325 µM) was 0.613, the relative viability ([3]; first compound 2 µM) was 0.376 and the relative viability ([4]; first compound 0.02 µM) was 0.592. It also gave a relative viability ([4]; first compound 0.06325 µM) of 0.698, a relative viability ([4]; first compound 0.2 µM) of 0.857 and a relative viability ([4]; first compound 0.6325 µM) of 0.716. It also gave a relative viability ([4]; first compound 2 µM) of 0.6.

In the case of Calu-6, the relative viability ([2]; first compound 0.02 µM) is reported as 0.844, the relative viability ([2]; first compound 0.06325 µM) is reported as 0.812 and the relative viability ([2]; first compound 0.2 µM) is reported as 0.91. It also gave a relative viability ([2]; first compound 0.6325 µM) of 0.819 and a relative viability ([2]; first compound 2 µM) of 0.764.

In the case of ChaGo-K-1, the relative viability ([1]; first compound 0.001 µM) is reported as 0.97, the relative viability ([1]; first compound 0.01 µM) is reported as 0.885 and the relative viability ([1]; first compound 0.03162 µM) is reported as 0.953. For the same cell line, the relative viability ([1]; first compound 0.1 µM) was 0.957, the relative viability ([2]; first compound 0.06325 µM) was 1.15 and the relative viability ([2]; first compound 0.2 µM) was 0.781. The relative viability ([2]; first compound 0.6325 µM) was 0.99, the relative viability ([2]; first compound 2 µM) was 0.457 and the relative viability ([3]; first compound 0.02 µM) was 0.528. It also gave a relative viability ([3]; first compound 0.06325 µM) of 0.562, a relative viability ([3]; first compound 0.2 µM) of 0.542 and a relative viability ([3]; first compound 0.6325 µM) of 0.52. The relative viability ([3]; first compound 2 µM) was 0.447, the relative viability ([4]; first compound 0.02 µM) was 0.636 and the relative viability ([4]; first compound 0.06325 µM) was 0.448. For the same cell line, the relative viability ([4]; first compound 0.2 µM) was 0.603, the relative viability ([4]; first compound 0.6325 µM) was 0.563 and the relative viability ([4]; first compound 2 µM) was 0.57.

EBC-1 showed a relative viability ([2]; first compound 0.02 µM) of 0.459, a relative viability ([2]; first compound 0.06325 µM) of 0.361 and a relative viability ([2]; first compound 0.2 µM) of 0.457. The relative viability ([2]; first compound 0.6325 µM) was 0.337 and the relative viability ([2]; first compound 2 µM) was 0.265.
